# Experimental data reported in the supplement of paper PMC10307832.
# Key:
# Assay in all cases: relative viability (nuclei count vs DMSO), 5 days (fraction); higher = more cells survive
# H3255 = test system: H3255
# Method in brief: (§1)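 The day after seeding in 1536-well plates, lung cancer cell lines were treated by pin tool with a single drug, or with a fixed anchor-drug dose together with five library-drug doses (not always all listed) in √10 steps. After 5 days, a combined fix-and-stain solution (final 0.05% Triton X-100, 1% formaldehyde, 1 ug/ml Hoechst) was added. Nuclei counted on 4× images gave relative viability as treated counts over vehicle counts, reported as the median of duplicate plates.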
# SK-MES-1 = test system: SK-MES-1
# Method in brief: as §1
# ChaGo-K-1 = test system: ChaGo-K-1
# Method in brief: as §1
# EMC-BAC-2 = test system: EMC-BAC-2
# Method in brief: as §1
# NCI-H1993 = test system: NCI-H1993
# Method in brief: as §1
# NCI-H2087 = test system: NCI-H2087
# Method in brief: as §1
# EPLC-272H = test system: EPLC-272H
# Method in brief: as §1
# NCI-H1944 = test system: NCI-H1944
# Method in brief: as §1
# NCI-H1395 = test system: NCI-H1395
# Method in brief: as §1
# NCI-H650 = test system: NCI-H650
# Method in brief: as §1
# LCLC-103H = test system: LCLC-103H
# Method in brief: as §1
# LCLC-97TM1 = test system: LCLC-97TM1
# Method in brief: as §1
# NCI-H322M = test system: NCI-H322M
# Method in brief: as §1
# NCI-H520 = test system: NCI-H520
# Method in brief: as §1
# NCI-H1793 = test system: NCI-H1793
# Method in brief: as §1
# NCI-H1651 = test system: NCI-H1651
# Method in brief: as §1
# NCI-H1355 = test system: NCI-H1355
# Method in brief: as §1
# HCC-44 = test system: HCC-44
# Method in brief: as §1
# NCI-H1563 = test system: NCI-H1563
# Method in brief: as §1
# HCC-827 = test system: HCC-827
# Method in brief: as §1
# NCI-H23 = test system: NCI-H23
# Method in brief: as §1
# NCI-H2405 = test system: NCI-H2405
# Method in brief: as §1
# UMC-11 = test system: UMC-11
# Method in brief: as §1
# NCI-H2085 = test system: NCI-H2085
# Method in brief: as §1
smiles,measurement,setting,value
CC(C)Oc1cc(Nc2nc(N[C@@H](C)c3ccc(F)cn3)ncc2Cl)n[nH]1 [AZ23] + Nc1nc2[nH]cc(CCc3ccc(C(=O)N[C@@H](CCC(=O)O)C(=O)O)cc3)c2c(=O)[nH]1 [Pemetrexed] (partner 0.2 µM),relative viability,H3255; first compound 0.01 µM,0.536
same,relative viability,H3255; first compound 0.03162 µM,0.603
same,relative viability,H3255; first compound 0.3162 µM,0.577
same,relative viability,SK-MES-1; first compound 0.03162 µM,1.03
same,relative viability,SK-MES-1; first compound 0.3162 µM,1.03
same,relative viability,ChaGo-K-1; first compound 0.01 µM,0.24
same,relative viability,ChaGo-K-1; first compound 0.03162 µM,0.256
same,relative viability,ChaGo-K-1; first compound 0.3162 µM,0.269
same,relative viability,EMC-BAC-2; first compound 0.01 µM,0.493
same,relative viability,EMC-BAC-2; first compound 0.03162 µM,0.46
same,relative viability,EMC-BAC-2; first compound 0.3162 µM,0.442
same,relative viability,NCI-H1993; first compound 0.01 µM,0.589
same,relative viability,NCI-H1993; first compound 0.03162 µM,0.564
same,relative viability,NCI-H1993; first compound 0.3162 µM,0.563
same,relative viability,NCI-H2087; first compound 0.01 µM,0.727
same,relative viability,NCI-H2087; first compound 0.03162 µM,0.691
same,relative viability,NCI-H2087; first compound 0.3162 µM,0.766
same,relative viability,EPLC-272H; first compound 0.03162 µM,0.322
same,relative viability,EPLC-272H; first compound 0.3162 µM,0.302
same,relative viability,NCI-H1944; first compound 0.01 µM,0.314
same,relative viability,NCI-H1944; first compound 0.03162 µM,0.824
same,relative viability,NCI-H1944; first compound 0.3162 µM,0.665
same,relative viability,NCI-H1395; first compound 0.03162 µM,0.97
same,relative viability,NCI-H1395; first compound 0.3162 µM,0.929
same,relative viability,NCI-H650; first compound 0.01 µM,0.936
same,relative viability,NCI-H650; first compound 0.03162 µM,0.969
same,relative viability,NCI-H650; first compound 0.3162 µM,0.888
same,relative viability,LCLC-103H; first compound 0.01 µM,0.448
same,relative viability,LCLC-103H; first compound 0.03162 µM,0.433
same,relative viability,LCLC-103H; first compound 0.3162 µM,0.466
same,relative viability,LCLC-97TM1; first compound 0.01 µM,0.138
same,relative viability,LCLC-97TM1; first compound 0.03162 µM,0.193
same,relative viability,LCLC-97TM1; first compound 0.3162 µM,0.166
same,relative viability,NCI-H322M; first compound 0.01 µM,0.536
same,relative viability,NCI-H322M; first compound 0.03162 µM,0.617
same,relative viability,NCI-H322M; first compound 0.3162 µM,0.689
same,relative viability,NCI-H520; first compound 0.01 µM,0.678
same,relative viability,NCI-H520; first compound 0.03162 µM,0.759
same,relative viability,NCI-H520; first compound 0.3162 µM,0.615
same,relative viability,NCI-H1793; first compound 0.01 µM,0.986
same,relative viability,NCI-H1793; first compound 0.03162 µM,0.92
same,relative viability,NCI-H1793; first compound 0.3162 µM,0.979
same,relative viability,NCI-H1651; first compound 0.01 µM,0.349
same,relative viability,NCI-H1651; first compound 0.03162 µM,0.597
same,relative viability,NCI-H1651; first compound 0.3162 µM,0.615
same,relative viability,NCI-H1355; first compound 0.01 µM,1.13
same,relative viability,NCI-H1355; first compound 0.03162 µM,1.11
same,relative viability,NCI-H1355; first compound 0.3162 µM,1.05
same,relative viability,HCC-44; first compound 0.01 µM,0.373
same,relative viability,HCC-44; first compound 0.03162 µM,0.66
same,relative viability,HCC-44; first compound 0.3162 µM,0.698
same,relative viability,NCI-H1563; first compound 0.01 µM,0.69
same,relative viability,NCI-H1563; first compound 0.03162 µM,0.934
same,relative viability,NCI-H1563; first compound 0.3162 µM,0.885
same,relative viability,HCC-827; first compound 0.01 µM,0.2
same,relative viability,HCC-827; first compound 0.03162 µM,0.27
same,relative viability,HCC-827; first compound 0.3162 µM,0.242
same,relative viability,NCI-H23; first compound 0.03162 µM,0.77
same,relative viability,NCI-H23; first compound 0.3162 µM,0.992
same,relative viability,NCI-H2405; first compound 0.01 µM,1.02
same,relative viability,NCI-H2405; first compound 0.03162 µM,1.04
same,relative viability,NCI-H2405; first compound 0.3162 µM,0.879
same,relative viability,UMC-11; first compound 0.01 µM,0.802
same,relative viability,UMC-11; first compound 0.03162 µM,0.814
same,relative viability,UMC-11; first compound 0.3162 µM,0.791
same,relative viability,NCI-H2085; first compound 0.01 µM,0.806
same,relative viability,NCI-H2085; first compound 0.03162 µM,0.907
same,relative viability,NCI-H2085; first compound 0.3162 µM,0.994
